Reference: patent US20080165354A1, “Method and Apparatus For Dissolving Solid Matter in Liquid” (priority 2005, published 2008)
“Also recorded” adds a separate entry of the source.

How the values were obtained:
[1] = Flow-through dissolution test, concentration of the dissolution medium by in-line UV-Vis spectrophotometer; type: physicochemical; settings: same setup as Example 1, flow rate 20 ml/min
Procedure: (§1) Dissolution testing was carried out employing simultaneous liquid/solid phase analysis. A modified flow-through dissolution method was used, in which • the concentration of the medium was measured with a UV-Vis spectrophotometer and • a simultaneous solid state analysis on the dissolving tablet in a flow-through chamber was performed using an in situ Raman spectroscopic analysis. The dissolution testing setup consisted of the flow-through cell, liquid reservoir (V=500 ml) and a peristaltic pump that circulates the medium (pump speed=70 rpm 9,3 ml/min). The dissolution medium used in the experiments was distilled water (room temperature).

[2] = In situ Raman spectroscopic solid state analysis of the dissolving tablet in a flow-through chamber; type: physicochemical; settings: same setup as Example 1, flow rate 20 ml/min
Procedure: as §1, with “temperature). The Raman spectra were collected using a Raman spectrometer (Control Development, South Bend, Ind., USA) with a diode laser (Starbright 785 S, Torsana Laser Technologies, Skodsborg, Denmark) at 785 nm. A fiber optic sampling probe (InPhotonics, Norwood, MA, USA) was used. The spectral range measured was 2200-100 cm^−1 at a resolution of 5 cm^−1.” for “temperature).”

O=C1CN(/N=C/c2ccc([N+](=O)[O-])o2)C(=O)N1 [NF anhydrate, Nitrofurantoin]
changes of the dissolution rate [1]: more complicated when compared to changes in the dissolution rate of TP
solid phase transformation during dissolution [2]: solid phase transformation of NF anhydrate to NF monohydrate (II); also recorded: an order of magnitude slower than that of TP anhydrate
